Assay results published in patent US12227501B2, “3-amino-2-[2-(acylamino)pyridin-4-yl]-1,5,6,7-tetrahydro-4h-pyrrolo[3,2-c]pyridin-4-one as CSNK1 inhibitors” (Bayer Aktiengesellschaft, priority 2019, dated 2025).
pIC50: −log10 of the molar value.

Tests used:
human CSNK1A1 [1] = molecular target: T1, human CSNK1A1 (Homo sapiens (Human), UniProt P48729); experiment: CSNK1A1 Assay 2 (ADP-Glo, 1 μM ATP); type: biochemical; conditions: substrate biotin-Ahx-KRRRAL-pS-VASLPGL, read-out: CSNK1A1 Assay 2 IC50 [mol/l] (median)
How it was run: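 Full-length human CSNK1A1 as an N-terminal GST fusion (baculovirus/insect cells) with biotinylated peptide substrate biotin-Ahx-KRRRAL-pS-VASLPGL and 1 μM ATP, in HEPES pH 7.5 buffer. Compounds were pre-incubated with enzyme (~0.0375 ng/μL) for 15 min at 22 °C. Generated ADP was read by ADP-Glo luminescence as the activity measure.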

human CSNK1A1 [2] = molecular target: T1, human CSNK1A1; experiment: CSNK1A1 High ATP Assay (ADP-Glo, 1 mM ATP); type: biochemical; conditions: read-out: CSNK1A1 high ATP assay IC50 [mol/l] (median)
How it was run: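 GST-tagged full-length human CSNK1A1 from baculovirus-infected insect cells (typically about 0.4 ng/μL), pre-incubated with compound 15 min at 22 °C. Reaction with biotinylated peptide biotin-Ahx-KRRRAL-pS-VASLPGL at 1 mM ATP. ADP formed read by ADP-Glo luminescence.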

T1 sequence (P48729 whole entry, the tested form may be a part): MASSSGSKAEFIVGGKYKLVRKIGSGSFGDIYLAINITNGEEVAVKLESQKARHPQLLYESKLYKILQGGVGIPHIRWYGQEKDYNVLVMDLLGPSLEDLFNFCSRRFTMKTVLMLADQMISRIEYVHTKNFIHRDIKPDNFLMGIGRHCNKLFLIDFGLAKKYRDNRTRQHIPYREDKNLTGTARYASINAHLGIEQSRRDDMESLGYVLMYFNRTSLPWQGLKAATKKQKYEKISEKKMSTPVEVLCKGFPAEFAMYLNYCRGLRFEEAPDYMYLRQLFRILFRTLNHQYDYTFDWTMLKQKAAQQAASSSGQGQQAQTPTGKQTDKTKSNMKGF

Row | SMILES | pIC50 (human CSNK1A1 [1]) | pIC50 (human CSNK1A1 [2])
1 | CN1CCc2[nH]c(-c3ccnc(NC(=O)Cc4ccc(F)cc4)c3)c(Nc3ccccc3)c2C1=O [Example 1, N-[4-(3-anilino-5-methyl-4-oxo-4,5,6,7-tetrahydro-1H-pyrrolo[3,2-c]pyridin-2-yl)pyridin-2-yl]-2-(4-fluorophenyl)acetamide] | 8.71 | 7.55
2 | C[C@@H](C(=O)Nc1cc(-c2[nH]c3c(c2Nc2ccccc2)C(=O)N(C)CC3)ccn1)c1ccc(F)cc1 (single isomer, unassigned) [Example 6] | 7.36 | 5.80
3 | CC(C(=O)Nc1cc(-c2[nH]c3c(c2Nc2ccccc2)C(=O)N(C)CC3)ccn1)c1ccc(F)cc1 (centres unmarked) [Example 4, N-[4-(3-anilino-5-methyl-4-oxo-4,5,6,7-tetrahydro-1H-pyrrolo[3,2-c]pyridin-2-yl)pyridin-2-yl]-2-(4-fluorophenyl)propanamide] | 8.26 | 6.94
4 | C[C@H](C(=O)Nc1cc(-c2[nH]c3c(c2Nc2ccccc2)C(=O)N(C)CC3)ccn1)c1ccc(F)cc1 (single isomer, unassigned) [Example 5] | 8.35 | 7.20
